Results published in publication PMC3228860, “Mitochondrial NAD^+-dependent malic enzyme from Anopheles stephensi: a possible novel target for malaria mosquito control” (2011).

target: mitochondrial NAD+-dependent malic enzyme (ME); test: NADH formation at […] nm, mitochondrial lysate, Ki from reciprocal plots; type: biochemical, Anopheles stephensi

SMILES | Ki [µM]
O=C(O)C(O)C(=O)O [Tartronate] | 0.61
O=C(O)CC(=O)C(=O)O [Oxaloacetate] | 0.12
O=C(O)C(=O)O [Oxalate] | 0.15
